Tested on: lung gene expression
Assay: RNA sequencing of lung tissue (BLM/EL244 vs BLM)
Format: in vivo, mouse
Settings: lung tissue, BLM/EL244 vs BLM
Procedure: RNA quality was assessed using an Agilent TapeStation 4150 with the High Sensitivity […] ScreenTape (Agilent), according to the manufacturer’s protocols. For library preparation, the QuantSeq 3’mRNA-Seq Library Prep Kit (Lexogen) was used according to manufacturer’s instructions. Briefly, 500 ng of RNA from each sample was used for first-strand synthesis, followed by RNA template removal, and second-strand synthesis initiated by random primers. In-line barcodes were introduced at this step, and this was followed by magnetic bead-based purification. The resulting libraries were amplified for 15 cycles and re-purified, with quantity and quality assessed on a Qubit 4 Fluorometer with the Invitrogen Qubit dsDNA HS Assay and an Agilent Tapestation 4150 with the High Sensitivity D1000 assay kit, respectively. The quantified libraries were pooled equimolarly; 50ng of total library mix was used for Adapter Conversion PCR Amplification using the Universal Library Conversion Kit (App-A), Version: V1.0 (MGI Tech Co., Ltd.), according to the manufacturer’s instructions.
The quantity and quality of the purified adapter conversion PCR (AC-PCR) product were evaluated on a Qubit 4 Fluorometer with the Invitrogen Qubit dsDNA HS Assay and on an Agilent Tapestation 4150 with the High Sensitivity D1000 assay kit, respectively. This was followed by DNA denaturation, Single-Strand Circularisation, Enzymatic Digestion, Enzymatic Digestion Product Cleanup and Quality Control steps on 1 pmol of AC-PCR product, according to the Universal Library Conversion Kit (App-A) User Manual (Version: A3).
Finally, 60 fmol of ssCirDNA were used for DNB preparation and sequencing on a DNBSEQ-G400 platform at the BSRC Alexander Fleming Genomics Facility, using a G400 App-A FCS SE100 High-throughput Sequencing Set (MGI Tech Co., Ltd.), according to the manufacturer’s instructions.
Alignment of the FASTQ files was performed against the mouse genome build mm10 using a custom Bash script.[143] Read counting on the 3′ UTRs and differential expression analysis were conducted using the metaseqR2 bioconductor package.[144] Genes corresponding to the following biotypes were excluded: polymorphic_pseudogene, processed_transcript, pseudogene, IG_V_pseudogene, misc_RNA, IG_C_gene, IG_J_gene, IG_D_gene, IG_LV_gene, TR_V_gene, TR_V_pseudogene, TEC, and processed_pseudogene. Gene counts were normalized with DESEQ[145] through metaseqR2. Genes with more than 10 counts in at least 50% of the samples were kept for further processing. For differential expression analysis, the PANDORA algorithm[146] was used to estimate a meta p-value integrating the results from the DESEQ, DESEQ2,[147] edgeR,[148] limma,[149] NBPSeq,[150] and NOISeq[151] algorithms. All additional parameters were set to default values.
Pathway enrichment analysis was performed for the Gene Ontology Biological process (BP) and Molecular Function (MF) terms through GeneCodis 4.[152] The volcano plots, scatterplots, Venn diagrams, and dot plots were generated using the ggplot2 Bioconductor package.

Structure (SMILES): O=C1NC(=O)C(Cc2ccc(OCCC3CCN(C(=O)OCc4cc(Cl)cc(Cl)c4)CC3)cc2)S1 (stereo not shown) [EL244, 3,5-dichlorobenzyl 4-(2-(4-((2,4-dioxothiazolidin-5-yl)methyl)phenoxy)ethyl)piperidine-1-carboxylate]
- Prrx2 nFC: 0.30
- Prss23 log2 nFC: 0.67
- Prss23 nFC: 1.60
- Ptprb log2 nFC: 0.67
- Ptprb nFC: 1.59
- Rad51 log2 nFC: -1.90
- Rad51 nFC: 0.27
- Rad54l log2 nFC: -1.87
- Rad54l nFC: 0.27
- Rbm33 log2 nFC: 0.58
- Rbm33 nFC: 1.50
- Rcan1 log2 nFC: -0.84
- Rcan1 nFC: 0.56
- Rcn3 log2 nFC: -0.66
- Rcn3 nFC: 0.63
- Retnla log2 nFC: -2.32
- Retnla nFC: 0.20
- Rgs16 log2 nFC: -2.59
- Rgs16 nFC: 0.17
- Rnaset2a log2 nFC: -0.70
- Rnaset2a nFC: 0.62
- Rps27l log2 nFC: -0.70
- Rps27l nFC: 0.62
- Rrm1 log2 nFC: -0.81
- Rrm1 nFC: 0.57
- Rrm2 log2 nFC: -2.56
- Rrm2 nFC: 0.17
- S100a11 log2 nFC: -0.60
- S100a11 nFC: 0.66
- Saa3 log2 nFC: -2.75
- Saa3 nFC: 0.15
- Sash1 log2 nFC: 0.59
- Sash1 nFC: 1.50
- Scarb1 log2 nFC: -0.72
- Scarb1 nFC: 0.61
- Scgb3a2 log2 nFC: 0.65
- Scgb3a2 nFC: 1.56
- Selenop log2 nFC: 0.58
- Selenop nFC: 1.50
- Sfrp1 log2 nFC: -1.73
- Sfrp1 nFC: 0.30
- Sftpc log2 nFC: 0.62
- Sftpc nFC: 1.54
- Sgo2a log2 nFC: -1.68
- Sgo2a nFC: 0.31
- Sh3pxd2b log2 nFC: -0.78
- Sh3pxd2b nFC: 0.58
- Shcbp1 log2 nFC: -1.60
- Shcbp1 nFC: 0.33
- Sirpa log2 nFC: -0.71
- Sirpa nFC: 0.61
- Ska1 log2 nFC: -2.52
- Ska1 nFC: 0.17
- Slc7a11 log2 nFC: -1.50
- Slc7a11 nFC: 0.35
- Slc36a1 log2 nFC: -0.81
- Slc36a1 nFC: 0.57
- Slc39a1 log2 nFC: -0.63
- Slc39a1 nFC: 0.65
- Snrnp40 log2 nFC: -0.60
- Snrnp40 nFC: 0.66
- Snrpd1 log2 nFC: -0.64
- Snrpd1 nFC: 0.64
- Socs3 log2 nFC: -0.62
- Socs3 nFC: 0.65
- Sox4 log2 nFC: -0.80
- Sox4 nFC: 0.57
- Sox9 log2 nFC: -1.42
- Sox9 nFC: 0.37
- Spag5 log2 nFC: -1.65
- Spag5 nFC: 0.32
- Sparc log2 nFC: -0.74
- Sparc nFC: 0.60
- Spc25 log2 nFC: -2.02
- Spc25 nFC: 0.25
- Spp1 log2 nFC: -1.50
- Spp1 nFC: 0.35
- Ssc5d log2 nFC: -1.71
- Ssc5d nFC: 0.31
- Ssh2 log2 nFC: 0.66
- Ssh2 nFC: 1.58
- Sting1 log2 nFC: -0.77
- Sting1 nFC: 0.59
- Stmn1 log2 nFC: -0.70
- Stmn1 nFC: 0.62
- Stxbp6 log2 nFC: 0.64
- Stxbp6 nFC: 1.56
- Tacc2 log2 nFC: 0.66
- Tacc2 nFC: 1.57
- Taf10 log2 nFC: -0.59
- Taf10 nFC: 0.67
- Tceal9 log2 nFC: -0.69
- Tceal9 nFC: 0.62
- Tcf19 log2 nFC: -1.42
- Tcf19 nFC: 0.37
- Tfdp1 log2 nFC: -0.74
- Tfdp1 nFC: 0.60
- Tgfbi log2 nFC: -0.68
- Tgfbi nFC: 0.62
- Tgif1 log2 nFC: -0.75
- Tgif1 nFC: 0.60
- Thbs4 log2 nFC: -2.34
- Thbs4 nFC: 0.20
- Thoc6 log2 nFC: -0.81
- Thoc6 nFC: 0.57
- Timm44 log2 nFC: -0.72
- Timm44 nFC: 0.61
- Timp1 log2 nFC: -2.30
- Timp1 nFC: 0.20
- Tk1 log2 nFC: -2.01
- Tk1 nFC: 0.25
- Tmem37 log2 nFC: -0.82
- Tmem37 nFC: 0.57
- Tmem252 log2 nFC: -0.70
- Tmem252 nFC: 0.62
- Tmsb10 log2 nFC: -0.58
- Tmsb10 nFC: 0.67
- Tnc log2 nFC: -2.35
- Tnc nFC: 0.20
- Tnfrsf1b log2 nFC: -0.70
- Tnfrsf1b nFC: 0.61
- Tnip3 log2 nFC: -1.47
- Tnip3 nFC: 0.36
- Tns1 log2 nFC: 0.67
- Tns1 nFC: 1.59
- Top2a log2 nFC: -1.97
- Top2a nFC: 0.25
- Tpx2 log2 nFC: -2.92
- Tpx2 nFC: 0.13
- Trem2 log2 nFC: -1.42
- Trem2 nFC: 0.37
- Trip13 log2 nFC: -1.42
- Trip13 nFC: 0.37
- Tspan7 log2 nFC: 0.64
- Tspan7 nFC: 1.56
- Tubb5 log2 nFC: -0.77
- Tubb5 nFC: 0.59
- Tubb6 log2 nFC: -0.75
- Tubb6 nFC: 0.59
- Txnip log2 nFC: 0.65
- Txnip nFC: 1.56
- Tyrobp log2 nFC: -0.69
- Tyrobp nFC: 0.62
- Ube2c log2 nFC: -1.80
- Ube2c nFC: 0.29
- Uhrf1 log2 nFC: -1.72
- Uhrf1 nFC: 0.30
- Utrn log2 nFC: 0.68
- Utrn nFC: 1.60
- Vangl2 log2 nFC: -0.76
- Vangl2 nFC: 0.59
- Xcl1 log2 nFC: -1.81
- Xcl1 nFC: 0.29
- Zfp46 log2 nFC: -0.70
- Zfp46 nFC: 0.62
- Zranb3 log2 nFC: -1.43
- Zranb3 nFC: 0.37
- Zwilch log2 nFC: -1.54
- Zwilch nFC: 0.34
- log2 nFC 1500009L16Rik: -1.23
- log2 nFC 2200002D01Rik: -0.88
- log2 nFC AA467197: -1.39
- log2 nFC Adamts2: -1.00
- log2 nFC Areg: -1.03
- log2 nFC Arhgap11a: -1.13
- log2 nFC Armcx4: -1.32
- log2 nFC Asf1b: -1.14
- log2 nFC Bcl2a1b: -1.15
- log2 nFC Bcl2a1d: -1.29
- log2 nFC Bub1b: -1.19
- log2 nFC C1qtnf5: -0.87
- log2 nFC C1qtnf6: -1.38
- log2 nFC Ccdc8: -1.11
- log2 nFC Ccl9: -1.37
- log2 nFC Ccl17: -0.95
- log2 nFC Cd68: -0.99
- log2 nFC Cd72: -1.01
- log2 nFC Cd248: -1.25
- log2 nFC Cd300c2: -0.89
- log2 nFC Cdca2: -1.33
- log2 nFC Cenpa: -1.31
- log2 nFC Cenpw: -1.33
- log2 nFC Cercam: -1.37
- log2 nFC Ch25h: -0.91
- log2 nFC Cilp: -1.39
- log2 nFC Clcn5: -0.92
- log2 nFC Clec4a2: -1.26
- log2 nFC Clec4n: -1.39
- log2 nFC Clec5a: -1.14
- log2 nFC Clec11a: -1.00
- log2 nFC Clec12a: -0.91
- log2 nFC Col1a2: -1.41
- log2 nFC Col8a1: -1.19
- log2 nFC Col12a1: -0.90
- log2 nFC Col15a1: -1.10
- log2 nFC Col16a1: -0.92
- log2 nFC Cotl1: -0.88
- log2 nFC Csf2rb2: -0.99
- log2 nFC Cstb: -0.95
- log2 nFC Ctsk: -0.98
- log2 nFC Ctss: -0.92
- log2 nFC Cx3cr1: -1.17
- log2 nFC Cyp7b1: -1.41
- log2 nFC Dbn1: -0.88
- log2 nFC Dclk1: -0.86
- log2 nFC Diaph3: -1.13
- log2 nFC Dio2: -1.39
- log2 nFC Dok2: -1.37
- log2 nFC Dut: -0.89
- log2 nFC Egr2: -0.89
- log2 nFC Epha4: -0.89
- log2 nFC F10: -1.11
- log2 nFC Fam20c: -1.06
- log2 nFC Fbn1: -1.03
- log2 nFC Fcgr1: -1.30
- log2 nFC Fcgr2b: -1.08
- log2 nFC Fcrls: -1.35
- log2 nFC Fen1: -1.00
- log2 nFC Fgf13: -1.40
- log2 nFC Fkbp10: -1.25
- log2 nFC Fndc1: -1.11
- log2 nFC Fscn1: -1.22
- log2 nFC Fst: -1.05
- log2 nFC Fstl1: -1.21
- log2 nFC Gas2l3: -1.32
- log2 nFC Gm13889: -0.85
- log2 nFC Gm25380: -1.01
- log2 nFC Gm42674: -1.18
- log2 nFC Gm49339: -0.94
